Test results reported in patent US20240317749A1, “THERAPEUTIC COMPOUNDS” (priority 2021, published 2024).
Converted amounts (≈) assume the structure as drawn.

Experiments:
[1] = system: N. gonorrhoeae ATCC 49226; assay: MIC assay for N. gonorrhoeae, broth microdilution in Todd-Hewitt (TH) broth; type: cell-based; settings: Neisseria gonorrhoeae, ATCC49226; Antibacterial Activity against N. gonorrhoeae ATCC 49226 in TH
Text: MIC assays for N. gonorrhoeae were done using the ATCC 49226 strain. The procedure guidelines recommended by the Clinical and Laboratory Standards Institute (CLSI) for the broth microdilution MIC assay were modified by substituting […]. Also, the recommended bacterial inoculum was modified to meet the high inoculum demands needed for N. gonorrhoeae growth. A 96-well plate containing TH broth with 2-fold serial dilution of compounds was inoculated with log-phase bacterial at 2.5×10^7 CFU/mL. The final volume in each well was 200 μL. Each compound was tested in duplicate. The microtiter plates were incubated in an […] environment for 24 hours at 37° C. using the candle jar technique. Then the bacterial growth was tested by reading the plate with a SpectraMax iD5 plate reader (Molecular Devices, Inc.) at 600 nm. The MIC was defined as the lowest compound concentration that inhibited bacteria growth.

[2] = system: P. aeruginosa ATCC 27853; assay: MIC assay, CLSI broth microdilution in CAMH broth; type: cell-based, Pseudomonas aeruginosa; settings: P. aeruginosa ATCC 278538
Experimental: (§1) MIC assays for various Gram-negative and Gram-positive strains were conducted in accordance with the CLSI guidelines for broth microdilution. A 96-well plate containing CAMH broth with 2-fold serial dilution of compounds was inoculated with log-phase bacterial at 5×10^5 CFU/mL. The final volume in each well was 100 μL. Each compound was tested in duplicate. The microtiter plates were incubated in an aerobic environment for 18 hours at 37° C. Then the bacterial growth was tested by reading the plate with a SpectraMax iD5 plate reader (Molecular Devices, Inc.) at 600 nm. The MIC was defined as the lowest compound concentration that inhibited bacteria growth.
(§2) The following Gram-negative and Gram-positive strains were used in the aerobic MIC procedure: • P. aeruginosa ATCC 27853 • A. baumannii ATCC 19606 • E. coli ATCC 25922 • E. coli W4573 • E. coli N43 • K. pneumoniae ATCC 10031 • K. pneumoniae ATCC 13883 • S. sonnei ATCC 29930 • P. mirabilis ATCC 29906 • Methicillin-susceptible S. aureus (MSSA) ATCC 19636 • Methicillin-resistant S. aureus (MRSA) ATCC 33951

[3] = system: E. coli ATCC 25922; assay: MIC assay, CLSI broth microdilution in CAMH broth; type: cell-based, Escherichia coli
Experimental: as §1, §2

[4] = system: E. coli N43; assay: MIC assay, CLSI broth microdilution in CAMH broth; type: cell-based, Escherichia coli
Experimental: as §1, §2

[5] = system: E. coli W4573; assay: MIC assay, CLSI broth microdilution in CAMH broth; type: cell-based, Escherichia coli
Experimental: as §1, §2

[6] = system: K. pneumoniae ATCC 10031; assay: MIC assay, CLSI broth microdilution in CAMH broth; type: cell-based, Klebsiella pneumoniae; settings: K. pneumonias ATCC 10031
Experimental: as §1, §2

[7] = system: K. pneumoniae ATCC 13883; assay: MIC assay, CLSI broth microdilution in CAMH broth; type: cell-based, Klebsiella pneumoniae; settings: K. pneumonias ATCC 13883
Experimental: as §1, §2

[8] = system: P. mirabilis ATCC 29906; assay: MIC assay, CLSI broth microdilution in CAMH broth; type: cell-based, Proteus mirabilis
Experimental: as §1, §2

[9] = system: Methicillin-susceptible S. aureus (MSSA) ATCC 19636; assay: MIC assay, CLSI broth microdilution in CAMH broth; type: cell-based, Staphylococcus aureus
Experimental: as §1, §2

[10] = system: Methicillin-resistant S. aureus (MRSA) ATCC 33591; assay: MIC assay, CLSI broth microdilution in CAMH broth; type: cell-based, Staphylococcus aureus
Experimental: as §1, with “growth. […]” for “growth.”

Row | SMILES | MIC [1] [µg/mL] | Intrinsic MIC in CAMH [2] | Intrinsic MIC in CAMH [3] | Intrinsic MIC in CAMH [4] | Intrinsic MIC in CAMH [5] | Intrinsic MIC in CAMH [6] | Intrinsic MIC in CAMH [7] | Intrinsic MIC in CAMH [8] | Intrinsic MIC in CAMH [9] | Intrinsic MIC in CAMH [10]
1 | Nc1nc(N)c2ccc3c(ccn3Cc3cccc(Br)c3)c2n1 [Example 3, 7-(3-bromobenzyl)-7H-pyrrolo[2,3-h]quinazoline-2,4-diamine] | 0.5 (≈ 1.36 µM) | >64¤ | 32¤ | 1¤ | >64¤ | 4¤ | >64¤ | >64¤ | 2¤ | 2¤
2 | CC[C@H]1OC(=O)[C@H](C)[C@@H](O[C@H]2C[C@@](C)(OC)[C@@H](O)[C@H](C)O2)[C@H](C)[C@@H](O[C@@H]2O[C@H](C)C[C@H](N(C)C)[C@H]2O)[C@](C)(O)C[C@@H](C)CN(C)[C@H](C)[C@@H](O)[C@]1(C)O [AZM, azithromycin, reference compound] |  | 64¤ | 8¤ | 1¤ | 4¤ | 2¤ | 32¤ | 64¤ | 1¤ | 1¤
3 | Nc1nc(N)c2ccc3c(ccn3Cc3ccc(C(F)(F)F)cc3)c2n1 [Example 7, 7-(4-(trifluoromethyl)benzyl)-7H-pyrrolo[2,3-h]quinazoline-2,4-diamine] | 2 (≈ 5.6 µM) | >64¤ | 2¤ | ≤0.015¤ | 2¤ | ≤0.125¤ | 8¤ | >64¤ | ≤0.25¤ | ≤0.25¤
4 | Nc1nc(N)c2ccc3c(ccn3Cc3ccc4ccccc4c3)c2n1 [Example 21, 7-(naphthalen-2-ylmethyl)-7H-pyrrolo[2,3-h]quinazoline-2,4-diamine] | 2 (≈ 5.89 µM) | >128¤ | >64¤ | 8¤ | >64¤ | 8¤ | >64¤ | >64¤ | 4¤ | 4¤
5 | Nc1nc(N)c2ccc3c(ccn3C3C=CCCC3)c2n1 (centres unmarked) [Example 26, 7-(cyclohex-2-en-1-yl)-7H-pyrrolo[2,3-h]quinazoline-2,4-diamine] | 4 (≈ 14.3 µM) | >128¤ | 16¤ | <0.125¤ | 16¤ | 2¤ | 64¤ | >64¤ | 1¤ | 1¤
6 | N#Cc1cccc(Cn2ccc3c4nc(N)nc(N)c4ccc32)c1 [Example 6, 3-((2,4-diamino-7H-pyrrolo[2,3-h]quinazolin-7-yl)methyl)benzonitrile] | 4 (≈ 12.7 µM) | >64¤ | 4¤ | ≤0.015¤ | 4¤ | ≤0.125¤ | 16¤ | >64¤ | 0.5¤ | 0.5¤
7 | Nc1nc(N)c2ccc3c(ccn3Cc3ccc(Br)cc3)c2n1 [Example 2, 7-(4-bromobenzyl)-7H-pyrrolo[2,3-h]quinazoline-2,4-diamine] | 2 (≈ 5.43 µM) | >128¤ | 2¤ | ≤0.25¤ | 1¤ | ≤0.25¤ | 4¤ | 4¤ | ≤0.25¤ | ≤0.25¤
8 | Cc1cc2c3nc(N)nc(N)c3ccc2n1Cc1ccc(-c2ccccc2C#N)cc1 [Example 31, 4′-((2,4-diamino-8-methyl-7H-pyrrolo[2,3-h]quinazolin-7-yl)methyl)-[1,1′-biphenyl]-2-carbonitrile] | 1 (≈ 2.47 µM) | >128¤ | >64¤ | <0.125¤ | >64¤ | 0.5¤ | >64¤ | >64¤ | 0.25¤ | 0.5¤
9 | COc1cc(Cc2cnc(N)nc2N)cc(OC)c1OC [TMP, reference compound] |  | >64¤ | 0.5¤ | <0.125¤ | 0.5¤ | 0.25¤ | 2¤ | 1¤ | 0.5¤ | 0.5¤
10 | Nc1nc(N)c2ccc3c(ccn3Cc3ccc(C(=O)c4ccccc4)cc3)c2n1 [Example 16, (4-((2,4-diamino-7H-pyrrolo[2,3-h]quinazolin-7-yl)methyl)phenyl)(phenyl)methanone] | 4 (≈ 10.2 µM) | >64¤ | 4¤ | ≤0.015¤ | 2¤ | ≤0.125¤ | >64¤ | >64¤ | ≤0.25¤ | ≤0.25¤
